Results reported in patent publication US20010053796A1, “Delta-aminolevulinic acid for prevention and treatment of infection microorganisms and parasite” (priority 2000, published 2001).
Like-named read-outs stand apart in the source and are kept apart here.

Tested on: Scutica
Test: Extinction effect for Scutica in vitro
Format: cell-based
Method: Scutica used in this experiment was taken from epidermal mucus of infected flatfish and suspended in HBSS. The suspension was kept at room temperature for 30 min and centrifuged at 800 rpm for 10 min. The supernatant was removed. The pellet was suspended in MEM-10 (minimum essential medium, 10% FBS, streptomycine, penicilin) and kept for 30 min, and then centrifuged in the same manner as above. The supernatant was removed and left imagoes was gained and made into imagoes suspension with certain number of imagoes by counting with the blood counting machine. The imagoes suspension was subcultured in vitro and inoculated to prepared FHM cell of certain number (2.5×10^5 cells/mL) and then cultured at 17° C. Before carrying out the experiment, by measuring the extinction effect for Scutica according to the concentration of δ-aminolevulinic acid and reaction time, optimum δ-aminolevulinic acid concentration and treatment time was examined for Scutica extermination. The Scutica culture solution cultured in FHM cell line was centrifuged at 3000 rpm for 5 min. The supernatant was removed and was added to PBS. It was washed 3 times to use for the experiment. 1.0 M δ-aminolevulinic acid solution made from sterilized 3rd distilled water was diluted by 2-fold up to 1000-fold (1.0 mM). Scutica was added to each well of 96-well microplate at an amount of 50 μL. Then, δ-aminolevulinic acid solution diluted by 2 steps were added and cultured for 120 min while the viability of Scutica was monitored. During the culture for 120 min, extinction time was measured in 10 min intervals, at each concentration. Between each inoculation, they were stirred for 5 min and were kept for 5 min. after reaction, 1% trypan blue which is staining solution for organism was added to each wells at an amount of 100 μL and mixed. In cultured Scutica with the diluted solution of δ-aminolevulinic acid, the number of parasites was counted by the blood counting machine, according to time. […] Through the 60 min-treatment, more than 50% of Scutica were extinct. At the actual concentration of 2 mM, about 50% of Scutica was extinct through 1 hour-treatment.

NCC(=O)CCC(=O)O [δ-aminolevulinic acid]
30%: viability at 4000 µM (read-out: Viability (%) of Scutica, 4.0 mM, reaction time 30) | viability at 4000 µM (read-out: Viability (%) of Scutica, 4.0 mM, reaction time 40) | viability at 4000 µM (read-out: Viability (%) of Scutica, 4.0 mM, reaction time 70) | viability at 15000 µM (read-out: Viability (%) of Scutica, 15 mM, reaction time 10)
55%: viability at 2000 µM (read-out: Viability (%) of Scutica, 2.0 mM, reaction time 60)
0%: viability at 8000 µM (read-out: Viability (%) of Scutica, 8.0 mM, reaction time 70) | viability at 8000 µM (read-out: Viability (%) of Scutica, 8.0 mM, reaction time 80) | viability at 8000 µM (read-out: Viability (%) of Scutica, 8.0 mM, reaction time 90) | viability at 8000 µM (read-out: Viability (%) of Scutica, 8.0 mM, reaction time 110) | viability at 8000 µM (read-out: Viability (%) of Scutica, 8.0 mM, reaction time 120) | viability at 15000 µM (read-out: Viability (%) of Scutica, 15 mM, reaction time 20) | viability at 15000 µM (read-out: Viability (%) of Scutica, 15 mM, reaction time 30) | viability at 15000 µM (read-out: Viability (%) of Scutica, 15 mM, reaction time 40) | viability at 15000 µM (read-out: Viability (%) of Scutica, 15 mM, reaction time 50) | viability at 15000 µM (read-out: Viability (%) of Scutica, 15 mM, reaction time 60) | viability at 15000 µM (read-out: Viability (%) of Scutica, 15 mM, reaction time 70) | viability at 15000 µM (read-out: Viability (%) of Scutica, 15 mM, reaction time 80) | viability at 15000 µM (read-out: Viability (%) of Scutica, 15 mM, reaction time 90) | viability at 15000 µM (read-out: Viability (%) of Scutica, 15 mM, reaction time 110) | viability at 15000 µM (read-out: Viability (%) of Scutica, 15 mM, reaction time 120) | viability at 30000 µM (read-out: Viability (%) of Scutica, 30 mM, reaction time 20) | viability at 30000 µM (read-out: Viability (%) of Scutica, 30 mM, reaction time 30) | viability at 30000 µM (read-out: Viability (%) of Scutica, 30 mM, reaction time 40) | viability at 30000 µM (read-out: Viability (%) of Scutica, 30 mM, reaction time 50)
45%: viability at 2000 µM (read-out: Viability (%) of Scutica, 2.0 mM, reaction time 40) | viability at 4000 µM (read-out: Viability (%) of Scutica, 4.0 mM, reaction time 60) | viability at 4000 µM (read-out: Viability (%) of Scutica, 4.0 mM, reaction time 80) | viability at 8000 µM (read-out: Viability (%) of Scutica, 8.0 mM, reaction time 10) | viability at 8000 µM (read-out: Viability (%) of Scutica, 8.0 mM, reaction time 30)
50%: viability at 2000 µM (read-out: Viability (%) of Scutica, 2.0 mM, reaction time 10) | viability at 4000 µM (read-out: Viability (%) of Scutica, 4.0 mM, reaction time 10) | viability at 4000 µM (read-out: Viability (%) of Scutica, 4.0 mM, reaction time 20) | viability at 8000 µM (read-out: Viability (%) of Scutica, 8.0 mM, reaction time 20)
60%: viability at 2000 µM (read-out: Viability (%) of Scutica, 2.0 mM, reaction time 20)
10 min: time to completely extinct Scutica (500 to 60 mM)
25%: viability at 8000 µM (read-out: Viability (%) of Scutica, 8.0 mM, reaction time 40)
35%: viability at 2000 µM (read-out: Viability (%) of Scutica, 2.0 mM, reaction time 50) | viability at 2000 µM (read-out: Viability (%) of Scutica, 2.0 mM, reaction time 90)
about 50%: Scutica extinct (actual concentration of 2 mM, 1 hour-treatment)
more than 50%: Scutica extinct (60 min-treatment, concentration not given)
40%: viability at 2000 µM (read-out: Viability (%) of Scutica, 2.0 mM, reaction time 30) | viability at 2000 µM (read-out: Viability (%) of Scutica, 2.0 mM, reaction time 70) | viability at 2000 µM (read-out: Viability (%) of Scutica, 2.0 mM, reaction time 80) | viability at 2000 µM (read-out: Viability (%) of Scutica, 2.0 mM, reaction time 110) | viability at 4000 µM (read-out: Viability (%) of Scutica, 4.0 mM, reaction time 90) | viability at 8000 µM (read-out: Viability (%) of Scutica, 8.0 mM, reaction time 50) | viability at 8000 µM (read-out: Viability (%) of Scutica, 8.0 mM, reaction time 60)
60 min: time to completely extinct Scutica (actual concentration of 8 mM)
20%: viability at 4000 µM (read-out: Viability (%) of Scutica, 4.0 mM, reaction time 50) | viability at 30000 µM (read-out: Viability (%) of Scutica, 30 mM, reaction time 10)
more than 90%: Scutica extinct (500 mM to 2 mM, treatment of at minimum 2 hours)
10%: viability at 2000 µM (read-out: Viability (%) of Scutica, 2.0 mM, reaction time 120) | viability at 4000 µM (read-out: Viability (%) of Scutica, 4.0 mM, reaction time 110) | viability at 4000 µM (read-out: Viability (%) of Scutica, 4.0 mM, reaction time 120)
20 min: time to completely extinct Scutica (30˜15 mM)
